Test results from patent publication US4883808A, “Condensation products of cyclic diketones and ascorbic acid as immunomodulatory agents” (American Biotechnology Company, priority 1988, dated 1989).

Experiments:
[1] = tested on: T- and B-lymphocytes isolated from mouse spleens; assay: lymphocyte blastogenesis assay (mouse spleen lymphocytes, C-14 methyl thymidine uptake); type: cell-based; parameters: LPS 5.0 (lymphocyte blastogenesis) / RPMI (lymphocyte blastogenesis): unit not given here; conditions: for LPS 5.0 (lymphocyte blastogenesis) / % CHANGE (LPS): LPS 5.0 MG/KG; for % CHANGE (LPS) / % CHANGE (PHA): vs 0 mg/kg; for PHA 10.0 (lymphocyte blastogenesis) / % CHANGE (PHA): PHA 10.0 UG/KG; for RPMI (lymphocyte blastogenesis): media, no mitogen
Source text: One of these tests is the lymphocyte blastogenesis assay which measures the ability of the compound under test to affect DNA synthesis and mitosis of T- and B- lymphocytes isolated from mouse spleens.
Mitogens are substances which stimulate DNA synthesis and mitosis. The mitogens used in these studies were phytohemaglutinin (PHA) which is isolated from the red kidney bean and a lipopolysacharide isolated from Salmonella tythimurium (LPS).
The lymphocyte blastogenesis test is a method to assess the ability of immunocompetent T- or B-cells to respond to mitogens or a specific antigen. It may be performed on lymphocytes obtained from mice treated with immunostimulators in vivo or the entire assay can be performed in vitro. The assay as described below uses minimal doses of polyclonal mitogens to induce blastogenesis (proliferation measured by DNA synthesis), in order to be able to assess the phenomena of amplification.
The lymphocyte blastogenesis test is carried out as follows:
1. Sacrifice two mice/experimental group by cervical dislocation.
2. Immerse mice in a mild disinfectant solution (Povadyne).
3. Remove spleens and place in a sterile 6 well plate containing 5 ml/well of RPMI-1640.
4. Make a single cell suspension by mincing spleens with a sterile toothed forcep.
5. Place cell suspension in a sterile centrifuge tube and allow large clumps to settle for 10 minutes.
6. Remove single cell suspension by pipetting supernatant into another sterile centrifuge tube.
7. Centrifuge cell suspension for 10 mins. at 1100 RPM in GLC-2B.
8. Aseptically remove supernatant and discard.
9. Resuspend cell button in 5 mls of RPMI-1640, and centrifuge. Wash cells in this manner two more times.
10. Resuspend cells in 5 mls of RPMI-1640 containing 10-15% Human AB heat-inactivated (Pel-Freeze, Rogers, AR or BioBee, Boston, MA).
11. Perform viable cell count using 0.25% trypan blue exclusion dye made in physiological isotonic saline. Non-viable cells stain blue.
12. Adjust viable cell concentration to […] in RPMI-1640 containing human AB sera.
13. Aliquot in sextuplicate wells of a 96 well sterile round bottom tissue culture plate with 0.1 ml/well of the various cell suspensions to be tested.
14. Add to above replicate sextuplicate cells selected quantities of mitogen.
15. Include in the experiment a control plate which contains the same cell groups as above, but receive a 0.1 ml of media instead of mitogen.
16. Humidify plate by filling outside wells of plate with media.
17. Incubate plates at […] with 5% CO-2 for 48 hours.
18. After 48 hours all wells receive 0.025 mls of a 0.4 microcurie/ml solution of C-14 methyl thymidine and incubate at 37 C, 5% CO-2 for 18 hours.
19. The cells are harvested using a Brandel M-12 Cell Harvestor (Brandel, Rockfille, MD) onto filter paper discs using phosphate buffered saline at physiological osmolarity. (285-320 mos).
20. The filter paper disks are placed into Packard mini-scintillation vials and allowed to dry for 18 hours.
21. Once dried, the vials are filled with 2 mls of a scintillation cocktail containing 4 liters of scintillation grade toluene, 16.0 g of 2,5-diphenyloxazole (PPO) and 0.4 g of 1,4-Bis (2-(5-Phenyloxazoly) benzene (POPOP).
22. The vials are counted in a LKB 1212 Rackbeta (LKB Instruments, Gaithersburg, MD) Liquid scintillation counter for two minutes/vial.

adenovirus type 2 = assay: antiviral test of Sidewell and Huffman, adenovirus type 2 in HEp-2 cells; type: cell-based; conditions: HEp-2 target cell
Description: The virus rating (VR) of Compound A of this invention when tested in accordance with the method of Sidewell and Huffman (Appl. Microbiol. 22:795-801, 1971) against adenovirus type 2 utilizing HEp-2 as the target cell was greater than 0.2. […] The minimum toxic concentration (MTC) was greater than 320 μg/ml.

feline leukemia virus = assay: antiviral test of Sidewell and Huffman, feline leukemia virus in 81C cells; type: cell-based, feline leukemia virus (81C feline kidney cell); conditions: 81C cell line
Description: The virus rating (VR) of Compound A of this invention when tested in accordance with the method of […] and Huffman (Appl. Microbiol. 22:795-801, 1971) against adenovirus type 2 utilizing HEp-2 as the target cell was greater than 0.2. […] The minimum toxic concentration (MTC) was greater than 320 μg/ml. The same compound was also tested against feline leukemia virus by the […] and Huffman procedure using the […] cell line as the target. The […] cell is a feline kidney cell transformed with a murine leukemia virus (ras gene +) with the following results. The therapeutic index of the compound which is a measure of the compounds ability to protect the cell against the virus without adversely affecting cell growth was 22.

What does the source list for “<3,4'>-hemiketal-<3,6>-ketal of 2-(1',4'-diketo-3'-cyclohexyl)-2-hydroxy-3-keto-4-dihydroxyethylbutyrolactone [Compound B]”?
LPS 5.0 (lymphocyte blastogenesis) ([1]; 12.5 mg/kg): 7195 ± 90; % CHANGE (LPS) ([1]; 12.5 mg/kg): +2.2%; PHA 10.0 (lymphocyte blastogenesis) ([1]; 12.5 mg/kg): 7126 ± 1104; % CHANGE (PHA) ([1]; 12.5 mg/kg): -3.8%; RPMI (lymphocyte blastogenesis) ([1]; 12.5 mg/kg): 605 ± 117; LPS 5.0 (lymphocyte blastogenesis) ([1]; 25 mg/kg): 8580 ± 507; % CHANGE (LPS) ([1]; 25 mg/kg): +21.9%; PHA 10.0 (lymphocyte blastogenesis) ([1]; 25 mg/kg): 7563 ± 2053; % CHANGE (PHA) ([1]; 25 mg/kg): +2.1%; RPMI (lymphocyte blastogenesis) ([1]; 25 mg/kg): 1392 ± 247; LPS 5.0 (lymphocyte blastogenesis) ([1]; 50 mg/kg): 6823 ± 1305; PHA 10.0 (lymphocyte blastogenesis) ([1]; 50 mg/kg): 10218 ± 2630; % CHANGE (PHA) ([1]; 50 mg/kg): +37.9%; RPMI (lymphocyte blastogenesis) ([1]; 50 mg/kg): 1041 ± 687; LPS 5.0 (lymphocyte blastogenesis) ([1]; 100 mg/kg): 8423 ± 351; % CHANGE (LPS) ([1]; 100 mg/kg): +19.6%; PHA 10.0 (lymphocyte blastogenesis) ([1]; 100 mg/kg): 9258 ± 1391; % CHANGE (PHA) ([1]; 100 mg/kg): +24.9%; RPMI (lymphocyte blastogenesis) ([1]; 100 mg/kg): 705 ± 314; LPS 5.0 (lymphocyte blastogenesis) ([1]; 200 mg/kg): 8025 ± 1670; % CHANGE (LPS) ([1]; 200 mg/kg): +14%; PHA 10.0 (lymphocyte blastogenesis) ([1]; 200 mg/kg): 8111 ± 896; % CHANGE (PHA) ([1]; 200 mg/kg): +9.4%; RPMI (lymphocyte blastogenesis) ([1]; 200 mg/kg): 660 ± 354

With “<3,3'>-hemiketal-<3,6>-ketal of 2-(1',3'-diketo-4'-cyclopentyl)-2-hydroxy-3-keto-4-dihydroxyethylbutyrolactone [Compound A]” as the substance, how does the “minimum toxic concentration (MTC)” value (adenovirus type 2) read?
The value was “greater than 320 μg/ml”.

And the “ID50 (concentration that causes 50% reduction in virus replication)” value (adenovirus type 2; adenovirus type 2)?
Its value is 505.19 µg/mL.

What about the “virus rating (VR)” value (adenovirus type 2; adenovirus type 2) of the same substance?
Its value is “greater than 0.2”.

What about the “MTC (minimum toxic concentration)” value (feline leukemia virus) of the same substance?
Its value is 100.

And the “ID50 (concentration in μg./ml that causes 50% reduction in virus replication)” value (feline leukemia virus; feline leukemia virus)?
Its value is 4.5 µg/mL.

What about the “VR (virus rating)” value (feline leukemia virus; feline leukemia virus, control 0.98) of the same substance?
Its value is 1.1.
